Results taken from PMC12767876, “Synthesis and evaluation of enantiomeric quinoline-2-carboxamides: positron emission tomography imaging agents for the translocator protein” (RSC Medicinal Chemistry, 2025).
Like-named read-outs stand apart in the source and are kept apart here.

How the values were obtained:
[1] = biological target: T1, TSPO (Homo sapiens, UniProt P30536); test: [3H]PK11195 competition binding assay on homogenised human brain tissue (frontal cortex) from rs6971 genotyped HAB, MAB and LAB donors; conditions: for influence of rs6971 polymorphism on binding: HAB vs. LAB, unpaired t-test, p = 0.5273, n = 6 per genotype
T1 sequence (P30536 2-169): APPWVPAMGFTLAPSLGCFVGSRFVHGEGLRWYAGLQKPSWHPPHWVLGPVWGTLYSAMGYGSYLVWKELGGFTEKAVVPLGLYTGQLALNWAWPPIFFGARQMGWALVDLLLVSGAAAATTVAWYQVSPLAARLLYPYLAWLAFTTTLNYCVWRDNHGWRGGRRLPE
Description: All studies using human tissue were conducted and approved in accordance with the National Health Service Research Ethics Committee Southeast Scotland (NHS-RECSE, Edinburgh Brain and Tissue Bank, 16/ES/0084). Informed consents were obtained from human participants of this study. The Edinburgh Brain and Tissue code and BNN reference numbers for all new tissue samples used in this study are: SD022/13 (BBN_15222), SD038/13 (BBN_18391), SD037/14 (BBN_23395), SD051/14 (BBN_24340), SD012/15 (BBN_25055), SD032/16 (0.01.29084), SD027/12 (BBN_13410), SD038/12 (BBN_4176), SD006/14 (BBN_20593), SD008/14 (BBN_20592), SD020/14 (BBN_22611), SD011/15 (BBN_24781), SD023/12 (BBN_3785), SD029/13 (BBN_15809), SD036/13 (BBN_18392), SD046/13 (BBN_18407), SD034/14 (BBN_22628) and SD031/15 (001.26124). […] Binding was terminated with the addition of ice cold buffer before being immediately filtered over Whatman GF/B filter paper (Whatman, UK) pre-treated with 0.3% polyethylenimine (Sigma-Aldrich, USA) using a Brandel harvester (Brandel, USA). Filter paper was then removed, placed into Optiphase HiSafe 3 (2.5 mL) (Perkin Elmer, USA) and counted 48 h later on a Hidex 300 SL (Hidex, Finland). […] All binding assays were performed in triplicate. GraphPad Prism version 9 (GraphPad Software, USA) was used to fit all binding affinity curves. Curves were fitted using a one-site binding model.

[2] = HPLC determination of partition coefficient (log P) using C18 column; assay type: physicochemical
Excerpt: (§1) The selection of potential candidates as neurological imaging agents requires evaluation of key physicochemical properties. […] For agents that rely primarily on passive diffusion, the membrane partition coefficient is particularly critical. […] Taken together, these physicochemical properties and in vivo studies support the potential of LW223 as a neurological imaging agent. Although the R-enantiomer of LW223 was used to determine the physicochemical properties in this study, these values are expected to be representative of the S-enantiomer, which is consistent with observations for other enantiomeric pairs.[32] [table]

[3] = HPLC determination of membrane permeability (Pm) and membrane partition coefficient (Km) using immobilised artificial membrane (IAM) column; assay type: physicochemical
Excerpt: as §1

[4] = biological target: human serum albumin (Homo sapiens, UniProt P02768); test: HPLC determination of plasma protein binding using human serum albumin coated column; assay type: in vitro ADME; conditions: read-out: % PPB (plasma protein binding) (converted)
human serum albumin, sequence (P02768 25-609): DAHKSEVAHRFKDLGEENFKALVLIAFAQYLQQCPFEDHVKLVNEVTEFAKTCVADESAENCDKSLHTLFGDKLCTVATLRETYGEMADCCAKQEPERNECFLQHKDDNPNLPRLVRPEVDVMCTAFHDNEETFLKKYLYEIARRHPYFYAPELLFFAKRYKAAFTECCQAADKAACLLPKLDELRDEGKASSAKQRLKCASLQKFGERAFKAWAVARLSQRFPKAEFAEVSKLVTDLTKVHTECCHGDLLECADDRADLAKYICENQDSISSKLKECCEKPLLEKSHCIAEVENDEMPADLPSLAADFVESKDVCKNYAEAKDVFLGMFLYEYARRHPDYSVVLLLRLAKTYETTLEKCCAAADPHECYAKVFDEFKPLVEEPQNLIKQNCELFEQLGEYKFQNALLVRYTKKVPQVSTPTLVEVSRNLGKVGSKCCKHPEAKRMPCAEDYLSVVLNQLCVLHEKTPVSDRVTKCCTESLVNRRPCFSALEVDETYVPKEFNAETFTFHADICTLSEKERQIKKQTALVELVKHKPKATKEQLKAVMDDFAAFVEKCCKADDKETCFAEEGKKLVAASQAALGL
Excerpt: as §1

[5] = biological target: T1, TSPO; set-up: method as in PMID 32859708; conditions: human brain (and heart) tissues, cited from earlier work
[6] = set-up: method as in PMID 32859708, PMID 37795635; conditions: murine brain; cited from earlier work

SMILES | influence of rs6971 polymorphism on binding [1] | influence of rs6971 polymorphism on binding ([1]; listed as S-enantiomer) | fold lower affinity for TSPO compared to (R)-LW223 ([1]; human brain homogenate) [fold] | fold lower affinity for TSPO relative to PK11195 ([1]; human brain homogenate) [fold] | Ki ([1]; human brain homogenate, all genotypes (HAB, MAB, LAB), n = 18, 1 nM [3H]PK11195, 1.5 h at 4 °C, Kd […], mean ± SD, read-out: TSPO affinity (Ki)) [nM] | chromatographic logP [2] | K m (membrane partition coefficient) [3] | fraction unbound [4] | influence of rs6971 polymorphism on binding [5] | influence of rs6971 polymorphism on binding ([5]; listed as (R)-LW223) | blood–brain barrier crossing and non-specific binding [6]
CC[C@H](C)N(C)C(=O)c1nc2ccccc2c(-c2ccccc2)c1CF [(S)-LW223, (S)-(N-sec-Butyl)-3-(fluoromethyl)-N-methyl-4-phenylquinoline-2-carboxamide] | not significantly influenced by the rs6971 polymorphism | insensitive to the rs6971 polymorphism | 7.5 | 3.75 | 4.5 ± 0.7 |  |  |  |  |  | 
CCC(C)N(C)C(=O)c1cc2ccccc2c(-c2ccccc2Cl)n1 (centres unmarked) [PK11195, reference compound] |  |  |  |  |  | 3.98 | 184 | 0.08 |  |  | 
CC[C@@H](C)N(C)C(=O)c1nc2ccccc2c(-c2ccccc2)c1CF [LW223, (R)-N-(sec-Butyl)-3-(fluoromethyl)-N-methyl-4-phenylquinoline-2-carboxamide] |  |  |  |  |  | 4.13 | 195 | 0.08 | unaffected by rs6971 | not significantly influenced by the rs6971 polymorphism | effectively crosses the BBB and exhibits low non-specific binding
